“Also recorded” adds a separate entry of the source.
Assays:
[1] = system: chondroitin 6-sulfotransferase (C6ST); assay: Sulfotransferase activity measured with various glycosaminoglycan substrates and activators; assay type: biochemical, chick; conditions: for Transfer of sulfate group to glycosaminoglycan substrate by C6ST, in words: 25 nmol glycosaminoglycan, [35S]PAPS, 37° C., 20 minutes
Experimental: In the purification steps, the sulfotransferase activity was measured as follows. The reaction solution had the following composition.
The activity was measured for various glycosaminoglycans as the substrate, by using 25 nmol of glycosaminoglycans (as an amount of galactosamine for chondroitin sulfate and dermatan sulfate, or as an amount of glucosamine for heparan sulfate and keratan sulfate) in place of chondroitin.
The reaction solution was incubated at 37° C. for 20 minutes in a reaction tube, and then the reaction was terminated by immersing the reaction tube in boiling water for 1 minute. After the termination of the reaction, 0.1 μmol of chondroitin sulfate A (as an amount of glucuronic acid) was added as a carrier, and three volumes of ethanol containing 1.3% potassium acetate was added thereto to precipitate ^35 S-labeled polysaccharide. The mixture was centrifuged at 10,000× g for 10 minutes to obtain a precipitate which was then dissolved in 70 μl of water. An aliquot (50 μl) of the obtained solution was injected into a desalting column equilibrated with 0.1 M NH4 HCO3, and eluted fractions containing the ^35 S-labeled polysaccharide were collected. To an aliquot (200 μl) of an obtained collected fraction, 1 ml of a scintillation cocktail (Clearsol, produced by nacalai tesque) was added to measure ^35 S-radioactivity. Thus incorporation of ^35 S into the polysaccharide was measured.
An aliquot (400 μl) was dispensed from the residual solution, to which 800 μl of ethanol containing 1.3% potassium acetate was added, followed by mixing. The mixture was placed on ice for 30 minutes, followed by centrifugation at 10,000× g for 10 minutes to precipitate the ^35 S-labeled polysaccharide. The precipitate was dissolved in 25 μl of a buffer containing 0.1 mg/ml of BSA, 0.05 M Tris-acetate, pH 7.5, and 10 milliunits of chondroitinase ACII (originating from Arthrobacter aurescens, produced by Seikagaku Corporation) to perform a reaction at 37° C. for 2 hours. The solution after the reaction was spotted onto Whatman No. 1 filter paper together with 2-acetamido-2-deoxy-3-O-(β-D-gluco-4-enopyranosyluronic acid)-6-O-sulfo-D-galactose (ΔDi-6S) and 2-acetamido-2-deoxy-3-O-(β-D-gluco-4-enopyranosyluronic acid)-4-O-sulfo-D-galactose (ΔDi-4S) (each 0.1 μmol, each produced by Seikagaku Corporation), followed by development for 20 hours with 1-butanol/acetic acid/1 M ammonium hydroxide (2:3:1 (V/V/V)).
(§1) Positions of ΔDi-6S and ΔDi-4S were inspected by using an ultraviolet lamp respectively. Portions corresponding to them were excised from the filter paper respectively, and were then placed in a scintillator prepared by dissolving 5 g of diphenyloxazole and 0.25 g of dimethyl-1,4-bis(2-(5-phenyloxazole))benzene in 1 L of toluene to measure radioactivity. […] According to incorporation of ^35 S into ΔDi-6S and ΔDi-4S, activities of chondroitin 6-sulfotransferase and chondroitin 4-sulfotransferase were calculated respectively. The activity to catalyze transfer of 1 pmol sulfate group/minute was defined as 1 unit.

[2] = system: chondroitin 6-sulfotransferase; assay: Transfer reaction of sulfate group (35SO4) to lactosamine oligosaccharides by purified sulfotransferase; assay type: biochemical, chick; conditions: for Incorporation of 35S: 0.025 μmol oligosaccharide acceptor, 25 pmol [35S]PAPS, 0.09 μg purified C6ST, 37° C., 60 minutes, pH 6.8; for Incorporation (transfer) of sulfate group into the oligosaccharide, in words: acceptor for chondroitin 6-sulfotransferase, Superdex 30 gel filtration, 35S radioactivity
Experimental: Specifically, the transfer reaction of sulfate group (^35 SO4 was used as sulfate group in order to confirm sulfation) to various lactosamine oligosaccharides by using sulfotransferase was performed in accordance with the following method. A standard reaction mixture was a solution containing 2.5 μmol of imidazole-HCl (pH 6.8), 0.25 μmol of CaCl2, 0.1 μmol of dithiothreitol, 0.025 μmol of various lactosamine oligosaccharides, 25 pmol of [^35 S]PAPS (about 2.5×10^5 cpm), and 0.09 μg of purified chondroitin 6-sulfotransferase in a final volume of 50 μl. The reaction mixture was subjected to the reaction at 37° C. for 60 minutes in a reaction tube. The reaction was terminated by immersing the reaction tube in boiling water for 1 minute. After the termination of the reaction, lactosamine oligosaccharide (sulfated lactosamine oligosaccharide) to which ^35 SO4 had been transferred was separated from free ^35 SO4 and [^35 S]PAPS by means of gel filtration chromatography. A fraction (1 ml) was collected to measure the radioactivity.
The retention time of the sulfated lactosamine oligosaccharide was faster by 2 to 3 minutes than the retention time (indicated by arrows shown in FIG. 1) of the lactosamine oligosaccharide used (lactosamine oligosaccharide before sulfation (acceptor)). […] A peak of sulfated LN partially overlapped with those of free ^35 SO4 and [^35 S]PAPS. A radioactivity peak (indicated by a horizontal bar in FIG. 1A) of a product produced from LN was subjected to paper electrophoresis. As a result, the sulfated LN was separated from ^35 SO4 and [^35 S]PAPS. Therefore, incorporation of sulfate group (^35 SO4) into LN was calculated after the paper electrophoresis.

[3] = Specific activity of purified chondroitin 6-sulfotransferase (35S incorporation into ΔDi-6S and ΔDi-4S); assay type: biochemical; conditions: chondroitin substrate
Experimental: In the purification steps, the sulfotransferase activity was measured as follows. The reaction solution had the following composition. Namely, the reaction solution (50 μl) contained 2.5 μmol of imidazol-HCl, pH 6.8, 1.25 μg of protamine hydrochloride, 0.1 μmol of dithiothreitol,25 nmol (as an amount of glucuronic acid) of chondroitin (produced by Seikagaku Corporation), 50 pmol of [^35 S]PAPS (adenosine 3'-phosphate, 5'-phosphosulfate), and the enzyme.
The reaction solution was incubated at 37° C. for 20 minutes in a reaction tube, and then the reaction was terminated by immersing the reaction tube in boiling water for 1 minute. […] To an aliquot (200 μl) of an obtained collected fraction, 1 ml of a scintillation cocktail (Clearsol, produced by nacalai tesque) was added to measure ^35 S-radioactivity. Thus incorporation of ^35 S into the polysaccharide was measured. […]
as §1, with “The activity to catalyze transfer of 1 pmol sulfate group/minute was defined as 1 unit.” left out

With keratan sulfate the “Transfer of sulfate group to glycosaminoglycan substrate by C6ST, in words” value (“Transfer of sulfate group” for short) [1] was “transfers the sulfate group”.

For [Cl][Mn][Cl] [MnCl2], the “Effect on the activity of C6ST” value [1] was “increased”.

For chondroitin sulfate C, the “Transfer of sulfate group” value [1] was “transfers the sulfate group”.

In the case of dermatan sulfate, the “Transfer of sulfate group” value [1] is reported as “only scarcely transferred”.

In the case of CC(=O)NC1C(O)OC(COS(=O)(=O)O)C(OC2OC(COS(=O)(=O)O)C(O)C(OC3OC(COS(=O)(=O)O)C(OC4OC(CO)C(O)C(OC5(C(=O)O)CC(O)C(NC(C)=O)C(C(O)C(O)CO)O5)C4O)C(O)C3NC(C)=O)C2O)C1O [SL2L4, NeuAcα2--3Galβ1--4GlcNAc(6S)β1--3Gal(6S)β1--4GlcNAc(6S)], the “Incorporation of 35S” value [2] is reported as 0.48 pmol/minute/μg protein and the “Incorporation (transfer) of sulfate group into the oligosaccharide, in words” value (from here on “Incorporation (transfer)”) [2] is reported as “observed”.

In the case of CC(=O)N[C@H]1[C@H](O[C@H]2[C@@H](O)[C@@H](CO)O[C@@H](O[C@H]3[C@H](O)[C@@H](NC(C)=O)C(O)O[C@@H]3CO)[C@@H]2O)O[C@H](CO)[C@@H](O[C@@H]2O[C@H](CO)[C@H](O)[C@H](O)[C@H]2O)[C@@H]1O (stereo partly shown) [L1L1, Galβ1--4GlcNAcβ1--3Galβ1--4GlcNAc], the “Incorporation of 35S” value [2] is reported as 0.031 pmol/minute/μg protein and the “Incorporation (transfer)” value [2] is reported as “observed”.

With chondroitin sulfate A the “Transfer of sulfate group” value [1] was “transfers the sulfate group”.

In the case of CC(=O)NC1C(O)CC(OC2C(O)C(CO)OC(OC3C(CO)OC(O)C(NC(C)=O)C3OC3OC(C)C(O)C(O)C3O)C2O)(C(=O)O)OC1C(O)C(O)CO (stereo not shown) [SLe^x, NeuAcα2--3Galβ1--4(Fucα1-3)GlcNAc], the “Incorporation (transfer)” value [2] is reported as “no radioactivity was detected; also recorded: not detected”.

For chondroitin sulfate E, the “Transfer of sulfate group” value [1] was “only scarcely transferred”.

In the case of chondroitin sulfate, the “Transfer of sulfate group” value [1] is reported as “transfers the sulfate group”.

For CC(=O)NC1C(O)OC(CO)C(OC2OC(CO)C(O)C(OC3(C(=O)O)CC(O)C(NC(C)=O)C(C(O)C(O)CO)O3)C2O)C1O (stereo not shown) [SLN, NeuAcα2--3Galβ1--4GlcNAc], the “Incorporation of 35S” value [2] was 0.022 pmol/minute/μg protein and the “Incorporation (transfer)” value [2] was “observed”.

With protamine the “Effect on the activity of C6ST” value [1] was “increased”.

With CC(=O)N[C@H]1C(O)O[C@H](CO)[C@@H](O[C@@H]2O[C@H](CO)[C@H](O)[C@H](O)[C@H]2O)[C@@H]1O (stereo partly shown) [LN, Galβ1--4GlcNAc] the “Incorporation of 35S” value [2] was 0.012 pmol/minute/μg protein and the “Incorporation (transfer)” value [2] was “observed”.

For chondroitin, the “Transfer of sulfate group” value [1] was “transfers the sulfate group”.

With heparan sulfate the “Transfer of sulfate group” value [1] was “only scarcely transferred”.

For CC(=O)N[C@H]1[C@H](O[C@H]2[C@@H](O)[C@@H](COS(=O)(=O)O)O[C@@H](O[C@H]3[C@H](O)[C@@H](NC(C)=O)C(O)O[C@@H]3COS(=O)(=O)O)[C@@H]2O)O[C@H](COS(=O)(=O)O)[C@@H](O[C@@H]2O[C@H](CO)[C@H](O)[C@H](O)[C@H]2O)[C@@H]1O (stereo partly drawn) [L2L4, Galβ1--4GlcNAc(6S)β1--3Gal(6S)β1--4GlcNAc(6S)], the “Incorporation of 35S” value [2] was 0.29 pmol/minute/μg protein and the “Incorporation (transfer)” value [2] was “observed”.

For CC(=O)NC1C(O)OC(CO)C(OC2OC(CO)C(O)C(OC3OC(CO)C(OC4OC(CO)C(O)C(OC5(C(=O)O)CC(O)C(NC(C)=O)C(C(O)C(O)CO)O5)C4O)C(O)C3NC(C)=O)C2O)C1O (stereo not shown) [SL1L1, NeuAcα2--3Galβ1--4GlcNAcβ1--3Galβ1--4GlcNAc], the “Incorporation of 35S” value [2] was 0.034 pmol/minute/μg protein and the “Incorporation (transfer)” value [2] was “observed”.

B1: chondroitin 6-sulfotransferase: sulfotransferase purified from serum-free culture medium of chick chondrocyte (protein, UniProt Q92179 1-458, looked up)
Carbohydrate sulfotransferase …: MERRSALPQDFREVLHCLKMRSKYAVLLVFVVGLVIIEKENNFISRVSDKLKQSPQVLPEANETEASPVQAENGSLASLRQLDTAFSQLRTRLRNVTLQLAGELGIAAPEPRRHVLLMATTRTGSSFVGEFFNQQGNIFYLFEPLWHIERTVTFEPGGANAVGSALVYRDVLQQLLLCDLYILESFISPAPEEHLTAALFRRGSSHSLCEEPVCTPSLKKVFEKYHCKNRRCGPLNITLAAEACRRKQHMALKTVRIRQLEFLQPLAEDPRLDLRIIQLVRDPRAVLVSRMVAFSGKYESWKKWAAEGEAPLQEDEVQRLRGNCESIRLSAELGLRQPRWLRGRYMLVRYEDVARAPLRKALEMYRFAGIHPTPQVEEWIRANTQAPQDSNGIYSTQKNSSEQFEKWRFSIPFKLAQVVQDACEPAMRLFGYKLASSAQELTNRSLSLLEEGPPTRIT
For B1, the “Specific activity of chondroitin 6-sulfotransferase” value ([3]; 1 unit = transfer of 1 pmol sulfate group/minute) was 4.3×10^5 units/mg and the “Ratio of activities of chondroitin 4-sulfotransferase/chondroitin 6-sulfotransferase” value ([3]; purified enzyme) was 0.02.

From patent US5955325A, “Method for producing sulfated lactosamine oligosaccharide” (Seikagaku Kogyo Kabushiki Kaisha, priority 1996, dated 1999)
